The source of these data is patent US7649002B2, “(3,5-dimethylpiperidin-1yl)(4-phenylpyrrolidin-3-yl)methanone derivatives as MCR4 agonists” (Pfizer Inc, priority 2004, dated 2010).

Experiment [1] deals with T1, human MCR4 receptor (Homo sapiens, UniProt P32245).
T1 construct: expressed in transfected cells
As to the kind of experiment: MCR4 standard functional assay (Protocol C): cAMP AlphaScreen in HEK cells. It counts as cell-based. To be noted: Table 5. As for the experimental part:
(§1) Stimulation of adenylate cyclase following receptor activation is a widely used measure of functional activity for a number of receptor systems. The functional assay to measure cyclic AMP (cAMP) utilises human embryonic kidney (HEK) cells that stably express the human melanocortin MCR1, MCR3 or MCR4 receptor. Activation of MCR1, MCR3 or MCR4 receptors stimulates adenylate cyclase, generating cAMP, which is measured using AlphaScreen™ (PerkinElmer assay kits.
(§2) The AlphaScreen™ cAMP assay kit consists of ‘donor beads’, ‘acceptor beads’, and biotinylated cAMP which links the different beads together. Excitation of this linked complex at […] in the Fusion™-α microplate analyser results in light emission between […].
(§3) (i) MCR1. MCR3 and MCR4 Standard Functional Assay Methodology [Assay Protocol A, B AND C Respectively]
(§4) Determination of activity against the human MCR1, MCR3 and MCR4 receptor subtypes was carried out for compounds according to the present invention using three immortalised human embryonic kidney (HEK) cell lines that had been biologically engineered to express the human melanocortin MCR1, MCR3 or MCR4 receptor subtypes. These cell lines were engineered using protocols akin to those outlined by Gouarderes et al (Gouarderes, C., (2002) Neuroscience, 115(2); 349-361).
(§5) Such-compound-induced activation of these MCR1, MCR3 or MCR4 receptors lead to the stimulation of the cellular enzyme adenylate cyclase, which in turn lead to the cellular generation, and intra-cellular accumulation, of cyclic adenosine monophosphate (cAMP). […] Intracellular levels of cAMP were quantified using the commercially available AlphaScreen™ assay kits from PerkinElmer. A detailed assay protocol and an explanation of the concept underlying this kit is available through the PerkinElmer website (www.perkinelmer.com). The protocol listed below provides a summary this information.
(§6) The quantity of intracellular cAMP produced by compound-induced activation of the MCR1, MCR3 and MCR4 receptors in these three cell lines was measured using a Fusion™-α microplate analyser set to stimulate at a wavelength of 680 nm and to measure the energy emitted at wave lengths between […]. Compound-induced increases in MCR1, MCR3 or MCR4 receptor activation were subsequently quantified as a decrease in the quantity of light emitted at wavelengths between […]. Data analysis was subsequently performed using a curve-fitting program and the apparent potency of the test compound (expressed as an EC50 and defined as the effective compound concentration that elicited 50% of the maximum compound-induced response) extrapolated from the fitted curve.
Stimulation buffer (as per AlphaScreen™ protocol): HBSS supplemented with 0.5 mM IBMX, 5 mM HEPES, 0.1% (w/v) BSA and 10 mM MgCl2. […]

Experiment [2] has as its target T2, human MCR3 receptor (Homo sapiens, UniProt P41968).
T2 construct: expressed in transfected cells
As to the kind of experiment: MCR3 standard functional assay (Protocol B): cAMP AlphaScreen in HEK cells. It counts as cell-based. Conditions: Table 5; for Selectivity MCR3/MCR4: MCR4 by Protocol C; for EC50: Protocol B. As to the method:
as §1, §2, §3, §4, §5, §6
Stimulation buffer (as per AlphaScreen™ protocol): HBSS supplemented with 0.5 mM IBMX, 5 mM HEPES, 0.1% (w/v) BSA and 10 mM MgCl2.
Lysis buffer (as per AlphaScreen™ protocol): 5 mM HEPES solution supplemented with 0.1% (w/v) BSA and 0.3% (v/v) Tween-20.
Detection mix (as per AlphaScreen™ protocol): Lysis buffer supplemented with the biotinylated cAMP (10 nM) and Donor beads (10 μg/ml) as supplied in the AlphaScreenT cAMP assay kit.
For the MCR1, MCR3 and MCR4 standard functional assay methodologies compounds were initially dissolved in DMSO to give a compound concentration of 4 mM and then further diluted for the assay in stimulation buffer to give actual concentrations 2-fold greater than that desired as the final assay concentration.
The three HEK cell lines, as detailed hereinbefore, expressing the human MCR1, MCR3 or MCR4 receptor subtypes were grown in T225 vent cap flasks containing 50 ml of growth medium (DMEM supplemented with 10% (v/v) FCS, 2 mM L-Glutamine, 25 mM HEPES and 1.0 mg/ml Geneticin) and maintained in a cell incubator at a temperature of 37° C. and in an environment containing 5% CO2. Cells were harvested when they reached 80-90% confluency by first removing the existing growth medium and then washing with PBS that had been pre-warmed to a temperature of 37° C. […]

The structures appear in SMILES notation.

T2 sequence (P41968 whole entry): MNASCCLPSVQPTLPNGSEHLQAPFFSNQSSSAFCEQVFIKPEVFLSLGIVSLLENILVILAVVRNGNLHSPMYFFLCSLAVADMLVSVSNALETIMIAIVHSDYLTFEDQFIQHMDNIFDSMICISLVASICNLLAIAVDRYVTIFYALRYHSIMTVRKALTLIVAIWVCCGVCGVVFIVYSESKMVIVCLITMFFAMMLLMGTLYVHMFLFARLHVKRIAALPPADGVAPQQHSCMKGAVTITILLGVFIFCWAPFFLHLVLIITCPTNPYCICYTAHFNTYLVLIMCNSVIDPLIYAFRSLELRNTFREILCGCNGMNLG
T1 sequence (P32245 whole entry): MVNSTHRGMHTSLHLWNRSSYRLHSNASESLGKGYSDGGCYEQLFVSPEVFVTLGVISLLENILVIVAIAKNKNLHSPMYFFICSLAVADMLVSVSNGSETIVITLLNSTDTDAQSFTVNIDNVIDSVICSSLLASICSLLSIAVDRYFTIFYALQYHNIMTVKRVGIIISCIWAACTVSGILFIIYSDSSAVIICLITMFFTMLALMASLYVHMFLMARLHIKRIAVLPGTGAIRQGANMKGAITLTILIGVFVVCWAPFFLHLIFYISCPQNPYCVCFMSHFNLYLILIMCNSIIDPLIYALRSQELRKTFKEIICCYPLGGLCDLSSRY

In experiment [1], `CCN1C[C@@H](C(=O)N2C[C@@H](C)[C@](O)(C3CCCCC3)[C@@H](C)C2)[C@H](c2ccc(F)cc2F)C1` (relative stereo) [Example 2, (3R,4R,5S)-4-Cyclohexyl-1-{[(3S*,4R*)4-(2,4-difluorophenyl)-1-ethylpyrrolidin-3-yl]carbonyl}-3,5-dimethylpiperidin-4-ol] gave an EC50 of 68 nM. In addition, in experiment [2], the “Selectivity MCR3/MCR4” value is 123 and the EC50 was 8.38 µM.
In turn, `CCCC[C@@]1(O)[C@H](C)CN(C(=O)[C@@H]2CN(C(C)(C)C)C[C@H]2c2ccc(F)cc2F)C[C@@H]1C` [Example 3, (3R,4R,5S)-4-Butyl-1-{[(3S,4R)-1-tert-butyl-4-(2,4-difluorophenyl)pyrrolidin-3-yl]carbonyl}-3,5-dimethylpiperidin-4-ol] displayed an EC50 in experiment [1] of 44 nM. In addition, in experiment [2], the “Selectivity MCR3/MCR4” value amounted to 60 and the midpoint of the response, the EC50, lay at 2.62 µM.
